This note sets out measurements from patent publication US9926282B2, “Phthalazinones and isoquinolinones as rock inhibitors” (BRISTOL-MYERS SQUIBB COMPANY, priority 2013, dated 2018).

In one test the target is ROCK1 (Homo sapiens (Human), UniProt Q13464). The test is described as follows: ROCK assay (LABCHIP peptide phosphorylation), ROCK1. The class given is biochemical. The note with it: 5 μM ATP, 1.5 μM peptide substrate; read-out: ROCK1 IC50.
The next test has as its target ROCK2 (Homo sapiens (Human), UniProt O75116). The test can be described thus: ROCK assay (LABCHIP peptide phosphorylation), ROCK2. The class given is biochemical. The note with it: 5 μM ATP, 1.5 μM peptide substrate.

Chain of ROCK2 (O75116 whole entry, species assumed): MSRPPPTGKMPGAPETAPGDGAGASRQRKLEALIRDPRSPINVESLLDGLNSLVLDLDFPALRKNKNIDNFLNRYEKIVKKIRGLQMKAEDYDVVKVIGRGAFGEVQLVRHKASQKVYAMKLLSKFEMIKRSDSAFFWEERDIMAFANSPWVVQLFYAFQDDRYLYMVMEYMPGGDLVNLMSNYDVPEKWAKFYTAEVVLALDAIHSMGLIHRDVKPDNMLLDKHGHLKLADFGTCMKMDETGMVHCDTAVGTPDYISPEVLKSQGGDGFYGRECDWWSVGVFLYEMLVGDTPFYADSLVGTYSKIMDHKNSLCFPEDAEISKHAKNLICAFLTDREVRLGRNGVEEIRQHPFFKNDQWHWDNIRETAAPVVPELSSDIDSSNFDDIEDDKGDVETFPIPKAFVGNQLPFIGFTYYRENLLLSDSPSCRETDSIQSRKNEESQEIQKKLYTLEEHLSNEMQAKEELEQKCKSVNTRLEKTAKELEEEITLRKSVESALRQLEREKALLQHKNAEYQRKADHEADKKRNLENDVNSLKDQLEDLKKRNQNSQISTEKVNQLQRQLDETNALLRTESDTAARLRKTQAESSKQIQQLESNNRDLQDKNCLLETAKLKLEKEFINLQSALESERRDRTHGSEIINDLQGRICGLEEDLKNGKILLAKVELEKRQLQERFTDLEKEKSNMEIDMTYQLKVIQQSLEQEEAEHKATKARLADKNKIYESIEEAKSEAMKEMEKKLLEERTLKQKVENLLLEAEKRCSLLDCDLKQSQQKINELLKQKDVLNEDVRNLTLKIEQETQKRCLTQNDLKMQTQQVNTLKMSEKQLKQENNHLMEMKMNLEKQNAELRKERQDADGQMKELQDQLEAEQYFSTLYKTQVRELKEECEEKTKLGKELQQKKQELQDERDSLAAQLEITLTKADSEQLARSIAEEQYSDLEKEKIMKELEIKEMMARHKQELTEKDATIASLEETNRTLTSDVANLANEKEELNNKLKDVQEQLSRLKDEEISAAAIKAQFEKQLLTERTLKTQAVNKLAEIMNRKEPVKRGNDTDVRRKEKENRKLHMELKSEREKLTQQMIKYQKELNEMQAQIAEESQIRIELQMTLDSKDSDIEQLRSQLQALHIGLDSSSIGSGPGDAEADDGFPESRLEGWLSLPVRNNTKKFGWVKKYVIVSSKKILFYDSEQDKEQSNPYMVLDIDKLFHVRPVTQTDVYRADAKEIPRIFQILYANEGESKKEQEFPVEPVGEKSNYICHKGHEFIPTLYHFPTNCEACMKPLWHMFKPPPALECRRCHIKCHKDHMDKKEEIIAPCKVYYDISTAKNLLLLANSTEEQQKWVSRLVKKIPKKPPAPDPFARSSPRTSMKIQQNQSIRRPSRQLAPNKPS
Chain of ROCK1 (Q13464 whole entry, species assumed): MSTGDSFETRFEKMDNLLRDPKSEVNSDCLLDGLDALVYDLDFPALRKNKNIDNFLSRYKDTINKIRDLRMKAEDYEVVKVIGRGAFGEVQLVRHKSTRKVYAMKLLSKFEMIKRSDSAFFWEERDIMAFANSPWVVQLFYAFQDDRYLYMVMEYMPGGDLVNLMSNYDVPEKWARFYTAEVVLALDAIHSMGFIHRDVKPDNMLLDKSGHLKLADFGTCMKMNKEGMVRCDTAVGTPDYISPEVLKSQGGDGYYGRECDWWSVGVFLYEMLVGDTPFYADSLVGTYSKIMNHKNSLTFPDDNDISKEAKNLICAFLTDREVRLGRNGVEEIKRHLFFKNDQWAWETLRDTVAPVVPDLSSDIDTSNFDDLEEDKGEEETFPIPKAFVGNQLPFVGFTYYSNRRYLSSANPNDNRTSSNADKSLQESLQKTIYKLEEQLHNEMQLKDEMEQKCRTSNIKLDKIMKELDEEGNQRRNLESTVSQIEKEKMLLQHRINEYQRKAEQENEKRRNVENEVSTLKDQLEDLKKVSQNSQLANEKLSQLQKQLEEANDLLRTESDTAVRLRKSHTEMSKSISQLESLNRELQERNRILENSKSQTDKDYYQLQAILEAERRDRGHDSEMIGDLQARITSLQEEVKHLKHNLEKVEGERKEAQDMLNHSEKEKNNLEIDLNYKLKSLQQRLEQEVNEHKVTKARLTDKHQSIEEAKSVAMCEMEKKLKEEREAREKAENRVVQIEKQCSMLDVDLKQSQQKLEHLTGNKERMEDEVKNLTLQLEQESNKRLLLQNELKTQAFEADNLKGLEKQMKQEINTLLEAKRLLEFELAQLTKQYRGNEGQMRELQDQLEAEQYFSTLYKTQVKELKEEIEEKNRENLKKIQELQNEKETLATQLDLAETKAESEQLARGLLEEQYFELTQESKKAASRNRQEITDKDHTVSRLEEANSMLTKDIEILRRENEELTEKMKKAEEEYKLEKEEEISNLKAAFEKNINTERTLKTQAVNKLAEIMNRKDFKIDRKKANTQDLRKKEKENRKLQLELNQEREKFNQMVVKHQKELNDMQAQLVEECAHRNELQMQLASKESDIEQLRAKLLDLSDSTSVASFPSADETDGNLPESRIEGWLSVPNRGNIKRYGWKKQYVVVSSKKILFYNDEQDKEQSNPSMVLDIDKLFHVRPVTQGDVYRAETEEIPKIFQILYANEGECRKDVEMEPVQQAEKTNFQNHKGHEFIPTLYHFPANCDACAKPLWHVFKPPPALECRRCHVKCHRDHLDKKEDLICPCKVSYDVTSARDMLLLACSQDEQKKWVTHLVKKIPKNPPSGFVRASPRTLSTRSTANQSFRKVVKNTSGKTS

As a reminder, the IC50 is the concentration needed to halve the response being measured. Take `Cc1cc(NC(=O)c2c3ccccc3nn2CCN(C)C)ccc1-c1n[nH]c(=O)c2ccccc12` [Example 304, 2-[2-(dimethylamino)ethyl]-N-[3-methyl-4-(4-oxo-3,4-dihydrophthalazin-1-yl)phenyl]-2H-indazole-3-carboxamide]: the values for the half-maximal inhibitory concentration (IC50) at ROCK1 and against ROCK2 were 101 to 1000 nM and 0.1 to 100 nM, respectively.

For `CN1CCN(c2ccc(C(=O)Nc3ccc(-c4n[nH]c(=O)c5ccccc45)cc3)cc2)CC1` [Example 64, 4-(4-methylpiperazin-1-yl)-N-[4-(4-oxo-3,4-dihydrophthalazin-1-yl)phenyl]benzamide], the results for the IC50 at ROCK1 and against ROCK2 were 101 to 1000 nM and 0.1 to 100 nM, respectively.

On to `O=C(Nc1ccc(-c2n[nH]c(=O)c3ccccc23)cc1)c1n[nH]c2ncccc12` [Example 110, N-[4-(4-oxo-3,4-dihydrophthalazin-1-yl)phenyl]-1H-pyrazolo[3,4-b]pyridine-3-carboxamide], for which the IC50 on ROCK1 and on ROCK2 was 0.1 to 100 nM each time.

Regarding `O=C(Cc1ccc(-c2n[nH]c(=O)c3ccccc23)cc1)Nc1ccccc1` [Example 20, 2-[4-(4-oxo-3,4-dihydrophthalazin-1-yl)phenyl]-N-phenylacetamide], the figures for the IC50 at ROCK1 and against ROCK2 were 1000 to 50000 nM and 101 to 1000 nM, respectively.

`O=C(Nc1ccc(-c2n[nH]c(=O)c3ccccc23)cc1)c1cnn([C@H]2C[C@@H]3CC[C@H]2C3)c1` [Example 393, 1-((1S,2S,4R)-Bicyclo[2.2.1]heptan-2-yl)-N-(4-(4-oxo-3,4-dihydrophthalazin-1-yl)phenyl)-1H-pyrazole-4-carboxamide]: the IC50 at ROCK1 and against ROCK2 was 0.1 to 100 nM each time.

In the case of `COc1ccc2c(c1)N(C(=O)Nc1ccc(-c3c[nH]c(=O)c4ccccc34)cc1)CC2` [Example 80, 6-Methoxy-N-(4-(1-oxo-1,2-dihydroisoquinolin-4-yl)phenyl)indoline-1-carboxamide], the IC50 on ROCK1 and on ROCK2 was 0.1 to 100 nM in each case.

In the case of `O=C(Nc1ccc(-c2n[nH]c(=O)c3ccccc23)cc1)c1nc2ncccn2n1` [Example 112, N-[4-(4-oxo-3,4-dihydrophthalazin-1-yl)phenyl]-[1,2,4]triazolo[1,5-a]pyrimidine-2-carboxamide], the values for the IC50 at ROCK1 and against ROCK2 were 1000 to 50000 nM and 101 to 1000 nM, respectively.

For the compound `Cn1ccnc1C(=O)Nc1ccc(-c2n[nH]c(=O)c3ccccc23)cc1` [Example 52, 1-methyl-N-[4-(4-oxo-3,4-dihydrophthalazin-1-yl)phenyl]-1H-imidazole-2-carboxamide], the IC50 on ROCK1 and against ROCK2 was 101 to 1000 nM throughout.

On to `O=C(Nc1ccc(-c2n[nH]c(=O)c3ccccc23)cc1)c1nn(CC2CCOC2)c2ccccc12` (stereo not drawn) [Example 146, N-[4-(4-oxo-3,4-dihydrophthalazin-1-yl)phenyl]-1-(oxolan-3-ylmethyl)-1H-indazole-3-carboxamide], for which the half-maximal inhibitory concentration (IC50) on ROCK1 and on ROCK2 was 0.1 to 100 nM each time.

For `COc1cc2c(-c3ccc(CC(=O)N4Cc5ccccc5C4)cc3)c[nH]c(=O)c2cc1OC` [Example 255, 4-(4-(2-(Isoindolin-2-yl)-2-oxoethyl)phenyl)-6,7-dimethoxyisoquinolin-1(2H)-one], the values for the 50% inhibitory concentration (IC50) at ROCK1 and on ROCK2 were 1000 to 50000 nM and 101 to 1000 nM, respectively.

With `O=C(Nc1ccc(-c2n[nH]c(=O)c3ccccc23)cc1)c1c[nH]c(-c2ccccc2)n1` [Example 230, N-[4-(4-oxo-3,4-dihydrophthalazin-1-yl)phenyl]-2-phenyl-1H-imidazole-4-carboxamide], the concentration for half-maximal inhibition (IC50) at ROCK1 and on ROCK2 was 0.1 to 100 nM throughout.

Regarding `O=C(Nc1ccc(-c2n[nH]c(=O)c3ccccc23)cc1)N1CC2(CCNCC2)c2ccccc21` [Example 371, N-(4-(4-Oxo-3,4-dihydrophthalazin-1-yl)phenyl)spiro[indoline-3,4′-piperidine]-1-carboxamide], the IC50 on ROCK1 and at ROCK2 was 101 to 1000 nM each time.

Regarding `COc1ccc2cc(C(=O)Nc3ccc(-c4n[nH]c(=O)c5ccccc45)cc3)n(C)c2c1` [Example 127, 6-methoxy-1-methyl-N-[4-(4-oxo-3,4-dihydrophthalazin-1-yl)phenyl]-1H-indole-2-carboxamide], the half-inhibitory concentration (IC50) at ROCK1 and on ROCK2 was 0.1 to 100 nM in each case.

For `O=C(Cc1ccc(-c2n[nH]c(=O)c3ccccc23)cc1)N1CCc2ccc([N+](=O)[O-])cc21` [Example 285, 4-{4-[2-(6-nitro-2,3-dihydro-1H-indol-1-yl)-2-oxoethyl]phenyl}-1,2-dihydrophthalazin-1-one], the half-inhibitory concentration (IC50) on ROCK1 and against ROCK2 was 0.1 to 100 nM throughout.

For the compound `O=C(Nc1ccc(-c2n[nH]c(=O)c3ccccc23)cc1)C1CC(=O)N(c2cccc(Cl)c2F)C1` (stereo not drawn) [Example 211, 1-(3-chloro-2-fluorophenyl)-5-oxo-N-[4-(4-oxo-3,4-dihydrophthalazin-1-yl)phenyl]pyrrolidine-3-carboxamide], the values for the IC50 on ROCK1 and on ROCK2 were 1000 to 50000 nM and 101 to 1000 nM, respectively.

`Cc1nc(N2CCCc3ccccc32)sc1C(=O)Nc1ccc(-c2n[nH]c(=O)c3ccccc23)cc1` [Example 241, 4-methyl-N-[4-(4-oxo-3,4-dihydrophthalazin-1-yl)phenyl]-2-(1,2,3,4-tetrahydroquinolin-1-yl)-1,3-thiazole-5-carboxamide]: the IC50 at ROCK1 and at ROCK2 was 0.1 to 100 nM in each case.

In the case of `O=C(Cc1ccc(-c2n[nH]c(=O)c3ccccc23)cc1)N1CCc2ccc(OCc3ccncc3)cc21` [Example 272, 4-(4-{2-oxo-2-[6-(pyridin-4-ylmethoxy)-2,3-dihydro-1H-indol-1-yl]ethyl}phenyl)-1,2-dihydrophthalazin-1-one], the half-maximal inhibitory concentration (IC50) on ROCK1 and on ROCK2 was 0.1 to 100 nM in each case.

For the compound `O=C(Nc1ccc(-c2n[nH]c(=O)c3ccccc23)cc1)C1CCN(Cc2ccccc2)CC1` [Example 56, 1-benzyl-N-[4-(4-oxo-3,4-dihydrophthalazin-1-yl)phenyl]piperidine-4-carboxamide], the half-maximal inhibitory concentration (IC50) on ROCK1 and against ROCK2 was 1000 to 50000 nM in each case.

For the compound `COc1cc(-c2n[nH]c(=O)c3ccccc23)ccc1NC(=O)c1nn(CC(C)(C)O)c2ccccc12` [Example 357, 1-(2-Hydroxy-2-methylpropyl)-N-(2-methoxy-4-(4-oxo-3,4-dihydrophthalazin-1-yl)phenyl)-1H-indazole-3-carboxamide], the concentration for half-maximal inhibition (IC50) on ROCK1 lay within 1000 to 50000 nM; against ROCK2, 101 to 1000 nM.

On to `CC1(Cn2nc(C(=O)Nc3ccc(-c4n[nH]c(=O)c5ccccc45)cc3)c3ccccc32)COC1` [Example 145, 1-[(3-methyloxetan-3-yl)methyl]-N-[4-(4-oxo-3,4-dihydrophthalazin-1-yl)phenyl]-1H-indazole-3-carboxamide], for which the IC50 at ROCK1 and against ROCK2 was 0.1 to 100 nM each time.

In the case of `O=C(Nc1ccc(-c2n[nH]c(=O)c3ccccc23)c(CO)c1)c1nn(CC2CCOC2)c2ccc(F)cc12` (stereo not drawn) [Example 366, 5-Fluoro-N-(3-(hydroxymethyl)-4-(4-oxo-3,4-dihydrophthalazin-1-yl)phenyl)-1-((tetrahydrofuran-3-yl)methyl)-1H-indazole-3-carboxamide], the IC50 at ROCK1 lay within 101 to 1000 nM; at ROCK2, 0.1 to 100 nM.

For the compound `O=C(Nc1ccc(-c2n[nH]c(=O)c3ccccc23)cc1)c1cccc(N2CCCC2)c1` [Example 62, N-[4-(4-oxo-3,4-dihydrophthalazin-1-yl)phenyl]-3-(pyrrolidin-1-yl)benzamide], the IC50 at ROCK1 and against ROCK2 was 0.1 to 100 nM throughout.

Consider `Cc1c(C(=O)Nc2ccc(-c3n[nH]c(=O)c4ccccc34)cc2)cnn1-c1cccc(Cl)c1F` [Example 202, 1-(3-chloro-2-fluorophenyl)-5-methyl-N-[4-(4-oxo-3,4-dihydrophthalazin-1-yl)phenyl]-1H-pyrazole-4-carboxamide], for which the half-inhibitory concentration (IC50) at ROCK1 and against ROCK2 was 0.1 to 100 nM each time.

Take `COc1ccc2c(=O)[nH]cc(-c3ccc(NC(=O)N4CCc5ccccc54)cc3C)c2c1` [Example 323, N-(4-(6-Methoxy-1-oxo-1,2-dihydroisoquinolin-4-yl)-3-methylphenyl)indoline-1-carboxamide]: the IC50 on ROCK1 and on ROCK2 was 0.1 to 100 nM each time.

Take `CCOc1cc(NC(=O)c2nn(CC3CCOC3)c3ccccc23)ccc1-c1n[nH]c(=O)c2ccccc12` (stereo not drawn) [Example 347, N-(3-Ethoxy-4-(4-oxo-3,4-dihydrophthalazin-1-yl)phenyl)-1-((tetrahydrofuran-3-yl)methyl)-1H-indazole-3-carboxamide]: the IC50 lay in the range of 1000 to 50000 nM on ROCK1 and 101 to 1000 nM against ROCK2.

Turning to `CC(C)Oc1ccc2cc(C(=O)Nc3ccc(-c4n[nH]c(=O)c5ccccc45)cc3)[nH]c2c1` [Example 128, N-[4-(4-oxo-3,4-dihydrophthalazin-1-yl)phenyl]-6-(propan-2-yloxy)-1H-indole-2-carboxamide], the half-maximal inhibitory concentration (IC50) at ROCK1 and against ROCK2 was 0.1 to 100 nM each time.

As to `Cc1cc(NC(=O)c2nn(CC3CN(C)C3)c3ccccc23)ccc1-c1n[nH]c(=O)c2ccccc12` [Example 330, N-(3-Methyl-4-(4-oxo-3,4-dihydrophthalazin-1-yl)phenyl)-1-((1-methylazetidin-3-yl)methyl)-1H-indazole-3-carboxamide], the half-maximal inhibitory concentration (IC50) on ROCK1 was in the range of 0.1 to 100 nM; on ROCK2, 101 to 1000 nM.

`O=C(Nc1ccc(-c2n[nH]c(=O)c3ccccc23)cc1)c1nn(CC(O)COCc2ccccc2)c2ccccc12` (stereo not drawn) [Example 147, 1-[3-(benzyloxy)-2-hydroxypropyl]-N-[4-(4-oxo-3,4-dihydrophthalazin-1-yl)phenyl]-1H-indazole-3-carboxamide]: the concentration for half-maximal inhibition (IC50) on ROCK1 and on ROCK2 was 0.1 to 100 nM in each case.

Take `O=C(Nc1ccc(-c2n[nH]c(=O)c3ccccc23)cc1)c1ccc(N2CCCCC2)cc1` [Example 61]: the IC50 on ROCK1 and on ROCK2 was 0.1 to 100 nM throughout.

In the case of `COc1ccc2c(=O)[nH]cc(-c3ccc(CC(=O)N4CCc5ccc(OCC(C)(C)O)cc54)cc3)c2c1` [Example 289, 4-(4-(2-(6-(2-Hydroxy-2-methylpropoxy)indolin-1-yl)-2-oxoethyl)phenyl)-6-methoxyisoquinolin-1(2H)-one], the IC50 on ROCK1 and against ROCK2 was 0.1 to 100 nM in each case.
